In article PMC8176444 (Molecular Biology Reports, 2021):
pKi: −log10 of the molar value.

Target: T1, angiotensin-converting enzyme (ACE) (Ovis aries, UniProt A0ACI6QSL6)
T1 sequence (A0ACI6QSL6 34-1310): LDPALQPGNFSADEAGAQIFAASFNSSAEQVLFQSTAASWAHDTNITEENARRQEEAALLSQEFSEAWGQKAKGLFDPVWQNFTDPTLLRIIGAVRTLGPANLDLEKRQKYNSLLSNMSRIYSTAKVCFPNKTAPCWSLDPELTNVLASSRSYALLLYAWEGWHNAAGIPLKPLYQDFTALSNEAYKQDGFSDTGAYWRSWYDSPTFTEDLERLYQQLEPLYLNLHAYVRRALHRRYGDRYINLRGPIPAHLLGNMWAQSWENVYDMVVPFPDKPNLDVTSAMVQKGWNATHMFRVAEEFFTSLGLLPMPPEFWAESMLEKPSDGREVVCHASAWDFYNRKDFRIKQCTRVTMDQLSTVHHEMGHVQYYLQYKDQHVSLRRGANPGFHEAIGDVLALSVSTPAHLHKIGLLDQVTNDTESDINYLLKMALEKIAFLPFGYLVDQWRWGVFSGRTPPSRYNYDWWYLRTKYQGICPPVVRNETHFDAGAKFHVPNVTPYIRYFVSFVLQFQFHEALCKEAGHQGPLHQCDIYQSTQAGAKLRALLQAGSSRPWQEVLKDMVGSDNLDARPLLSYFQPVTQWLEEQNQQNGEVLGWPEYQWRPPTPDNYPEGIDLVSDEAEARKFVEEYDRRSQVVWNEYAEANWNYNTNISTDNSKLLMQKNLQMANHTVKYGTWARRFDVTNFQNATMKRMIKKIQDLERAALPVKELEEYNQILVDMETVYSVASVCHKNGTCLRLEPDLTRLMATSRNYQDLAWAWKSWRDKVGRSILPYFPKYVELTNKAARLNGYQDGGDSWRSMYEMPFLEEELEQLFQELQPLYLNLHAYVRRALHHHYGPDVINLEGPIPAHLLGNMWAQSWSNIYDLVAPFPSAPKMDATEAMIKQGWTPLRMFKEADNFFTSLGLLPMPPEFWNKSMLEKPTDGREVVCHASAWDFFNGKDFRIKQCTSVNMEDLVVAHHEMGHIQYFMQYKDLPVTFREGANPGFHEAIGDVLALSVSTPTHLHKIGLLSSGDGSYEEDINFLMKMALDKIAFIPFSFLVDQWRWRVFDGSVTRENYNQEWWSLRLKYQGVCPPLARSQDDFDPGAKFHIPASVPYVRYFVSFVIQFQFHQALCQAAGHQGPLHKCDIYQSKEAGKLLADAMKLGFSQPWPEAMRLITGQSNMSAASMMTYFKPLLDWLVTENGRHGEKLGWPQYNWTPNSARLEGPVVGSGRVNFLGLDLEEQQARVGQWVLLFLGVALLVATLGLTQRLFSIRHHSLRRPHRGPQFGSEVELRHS
Experiment: spectrophotometric FAPGG hydrolysis assay at […] nm
Format: biochemical

pKi: 9.41
SMILES: C[C@H](CS)C(=O)N1CCC[C@H]1C(=O)O [captopril]
